We go through 6 molecules from ChEMBL document CHEMBL1136917, “Isoxazole moiety in the linker region of HDAC inhibitors adjacent to the Zn-chelating group: effects on HDAC biology and antiproliferative activity” (Bioorg Med Chem Lett, 2009).

Some results are limits rather than exact numbers.

Histone deacetylase 1, sequence (Q13547 whole entry): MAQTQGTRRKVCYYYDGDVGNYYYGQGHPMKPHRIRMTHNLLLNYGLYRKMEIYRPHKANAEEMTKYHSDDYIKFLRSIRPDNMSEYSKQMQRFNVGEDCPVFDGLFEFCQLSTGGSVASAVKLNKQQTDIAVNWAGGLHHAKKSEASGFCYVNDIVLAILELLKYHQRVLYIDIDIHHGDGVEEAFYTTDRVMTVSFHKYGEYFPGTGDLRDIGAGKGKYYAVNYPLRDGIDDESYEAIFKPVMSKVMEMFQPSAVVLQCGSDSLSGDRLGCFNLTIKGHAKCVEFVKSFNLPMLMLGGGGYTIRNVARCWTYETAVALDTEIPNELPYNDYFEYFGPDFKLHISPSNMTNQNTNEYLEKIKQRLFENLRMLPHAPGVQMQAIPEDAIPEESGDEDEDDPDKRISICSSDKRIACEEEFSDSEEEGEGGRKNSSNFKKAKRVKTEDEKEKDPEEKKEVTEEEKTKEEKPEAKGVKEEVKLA
Histone deacetylase 2, sequence (Q92769 whole entry): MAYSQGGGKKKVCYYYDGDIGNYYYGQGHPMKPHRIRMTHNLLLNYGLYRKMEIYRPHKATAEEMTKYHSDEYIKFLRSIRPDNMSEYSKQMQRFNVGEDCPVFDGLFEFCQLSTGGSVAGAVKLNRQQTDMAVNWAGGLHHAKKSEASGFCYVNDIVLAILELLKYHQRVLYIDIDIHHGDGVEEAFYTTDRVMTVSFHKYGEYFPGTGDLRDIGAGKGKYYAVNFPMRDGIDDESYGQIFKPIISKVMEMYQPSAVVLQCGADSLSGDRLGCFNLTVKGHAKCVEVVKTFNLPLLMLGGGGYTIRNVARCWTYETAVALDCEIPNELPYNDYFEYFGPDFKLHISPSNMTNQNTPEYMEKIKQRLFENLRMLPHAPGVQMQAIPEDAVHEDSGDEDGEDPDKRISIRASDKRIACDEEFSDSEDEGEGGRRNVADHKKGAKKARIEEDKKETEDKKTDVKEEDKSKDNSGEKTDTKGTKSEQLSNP

One experiment concerns the target Histone deacetylase 2 (Homo sapiens, UniProt Q92769). In words: Inhibition of human recombinant HDAC2.
Settings: not given
Usually IC50 stands for the point on the concentration scale where inhibition reaches its midpoint. In the case of `O=C(CCCCc1cc(C(=O)NO)no1)NC1CCCCCC1`, the IC50 was greater than 30 µM.
On the same count and under the same terms, under `Nc1cccc(-c2csc(NC(=O)CCCCc3cc(C(=O)NO)no3)n2)c1` stands 0.164 µM; under `O=C(CCCCc1cc(C(=O)O)no1)Nc1nc(-c2ccccc2)cs1`, greater than 30 µM.
The same measure, in the same setting: under `CC(C)(C)OC(=O)Nc1ccc(-c2cc(C(=O)NCC(=O)Nc3ccc(-c4cc(C(=O)NO)no4)cc3)no2)cc1` stands greater than 30 µM; under `O=C(CCCCc1cc(C(=O)NO)no1)Nc1nc(-c2ccccc2)cs1`, 0.43 µM.
Still for that read-out and setting: next, `O=C(CCCCc1cc(C(=O)NO)no1)NC1CCCC1`: greater than 30 µM.

The next experiment has as its system BXPC-3. As to the kind of experiment: Antiproliferative activity against human BxPC3 cells by MTT assay.
Settings: not given
The format is functional, cell-based. (Tetrazolium dyes change colour on reduction, which living cells bring about.)
For the molecule `O=C(CCCCc1cc(C(=O)NO)no1)NC1CCCCCC1`, the IC50 was greater than 50 µM.
Molecule `Nc1cccc(-c2csc(NC(=O)CCCCc3cc(C(=O)NO)no3)n2)c1` gave an IC50 of 10.5 µM.
Same read-out and setting: under `O=C(CCCCc1cc(C(=O)O)no1)Nc1nc(-c2ccccc2)cs1` stands greater than 50 µM; under `CC(C)(C)OC(=O)Nc1ccc(-c2cc(C(=O)NCC(=O)Nc3ccc(-c4cc(C(=O)NO)no4)cc3)no2)cc1`, greater than 50 µM.
Still for that read-out and setting: next, `O=C(CCCCc1cc(C(=O)NO)no1)Nc1nc(-c2ccccc2)cs1`: 3 µM.
The same measure, in the same setting: under `O=C(CCCCc1cc(C(=O)NO)no1)NC1CCCC1` stands greater than 50 µM.

A further experiment concerns HuP-T3. As to the kind of experiment: Antiproliferative activity against human HUPT3 cells by MTT assay. The format is functional, cell-based.
Settings: not given
Molecule `O=C(CCCCc1cc(C(=O)NO)no1)NC1CCCCCC1` gave an IC50 greater than 50 µM.
Same read-out and setting: under `Nc1cccc(-c2csc(NC(=O)CCCCc3cc(C(=O)NO)no3)n2)c1` stands 28.4 µM.
Same read-out and setting: under `O=C(CCCCc1cc(C(=O)O)no1)Nc1nc(-c2ccccc2)cs1` stands greater than 50 µM; under `CC(C)(C)OC(=O)Nc1ccc(-c2cc(C(=O)NCC(=O)Nc3ccc(-c4cc(C(=O)NO)no4)cc3)no2)cc1`, greater than 50 µM; under `O=C(CCCCc1cc(C(=O)NO)no1)Nc1nc(-c2ccccc2)cs1`, 1 µM.
Take `O=C(CCCCc1cc(C(=O)NO)no1)NC1CCCC1`: the IC50 is greater than 50 µM.

For another experiment, the system named is MIA PaCa-2. In words: Antiproliferative activity against human MIAPaCa2 cells by MTT assay.
Settings: not given
The format is functional, cell-based.
`O=C(CCCCc1cc(C(=O)NO)no1)NC1CCCCCC1` yielded a half-maximal inhibitory concentration (IC50) greater than 50 µM.
Molecule `Nc1cccc(-c2csc(NC(=O)CCCCc3cc(C(=O)NO)no3)n2)c1` displayed an IC50 of 9 µM.
The same measure, in the same setting: under `O=C(CCCCc1cc(C(=O)O)no1)Nc1nc(-c2ccccc2)cs1` stands greater than 50 µM; under `CC(C)(C)OC(=O)Nc1ccc(-c2cc(C(=O)NCC(=O)Nc3ccc(-c4cc(C(=O)NO)no4)cc3)no2)cc1`, greater than 50 µM; under `O=C(CCCCc1cc(C(=O)NO)no1)Nc1nc(-c2ccccc2)cs1`, 4 µM.
`O=C(CCCCc1cc(C(=O)NO)no1)NC1CCCC1`: the IC50 came to 24 µM.

System in a further experiment: not listed separately
In words: Antiproliferative activity against human Panc 04.03 cells by MTT assay. The format is functional, cell-based.
Settings: not given
In turn, `O=C(CCCCc1cc(C(=O)NO)no1)NC1CCCCCC1` had a half-inhibitory concentration (IC50) greater than 50 µM.
Same read-out and setting: under `Nc1cccc(-c2csc(NC(=O)CCCCc3cc(C(=O)NO)no3)n2)c1` stands 14.4 µM.
`O=C(CCCCc1cc(C(=O)O)no1)Nc1nc(-c2ccccc2)cs1` returned an IC50 greater than 50 µM.
`CC(C)(C)OC(=O)Nc1ccc(-c2cc(C(=O)NCC(=O)Nc3ccc(-c4cc(C(=O)NO)no4)cc3)no2)cc1` displayed an IC50 greater than 50 µM.
Take `O=C(CCCCc1cc(C(=O)NO)no1)Nc1nc(-c2ccccc2)cs1`: the IC50 came out at 4 µM.
On the same count and under the same terms, next, `O=C(CCCCc1cc(C(=O)NO)no1)NC1CCCC1`: 30 µM.

System in another experiment: not listed separately
As to the kind of experiment: Antiproliferative activity against human SU-8686 cells by MTT assay. The format is functional, cell-based. The conditions noted are these: SU.86.86.
`O=C(CCCCc1cc(C(=O)NO)no1)NC1CCCCCC1` gave an IC50 greater than 50 µM.
Regarding `Nc1cccc(-c2csc(NC(=O)CCCCc3cc(C(=O)NO)no3)n2)c1`, inhibition was half-maximal at 15 µM (IC50).
Consider `O=C(CCCCc1cc(C(=O)O)no1)Nc1nc(-c2ccccc2)cs1`, for which the IC50 was greater than 50 µM.
As for `CC(C)(C)OC(=O)Nc1ccc(-c2cc(C(=O)NCC(=O)Nc3ccc(-c4cc(C(=O)NO)no4)cc3)no2)cc1`, the IC50 is greater than 50 µM.
On the same count and under the same terms, under `O=C(CCCCc1cc(C(=O)NO)no1)Nc1nc(-c2ccccc2)cs1` stands 1 µM; under `O=C(CCCCc1cc(C(=O)NO)no1)NC1CCCC1`, 43 µM.

Another experiment addresses Histone deacetylase 1 (Homo sapiens, UniProt Q13547).
Settings: not given
`Nc1cccc(-c2csc(NC(=O)CCCCc3cc(C(=O)NO)no3)n2)c1` registered an IC50 of 0.139 µM.
Same read-out and setting: next, `O=C(CCCCc1cc(C(=O)O)no1)Nc1nc(-c2ccccc2)cs1`: greater than 30 µM; `CC(C)(C)OC(=O)Nc1ccc(-c2cc(C(=O)NCC(=O)Nc3ccc(-c4cc(C(=O)NO)no4)cc3)no2)cc1`: 0.92 µM; `O=C(CCCCc1cc(C(=O)NO)no1)Nc1nc(-c2ccccc2)cs1`: 0.303 µM.
`O=C(CCCCc1cc(C(=O)NO)no1)NC1CCCC1` showed an IC50 of 17.1 µM.

The target of another experiment is Histone deacetylase 3 (Homo sapiens, UniProt O15379).
Histone deacetylase 3, sequence (O15379 whole entry): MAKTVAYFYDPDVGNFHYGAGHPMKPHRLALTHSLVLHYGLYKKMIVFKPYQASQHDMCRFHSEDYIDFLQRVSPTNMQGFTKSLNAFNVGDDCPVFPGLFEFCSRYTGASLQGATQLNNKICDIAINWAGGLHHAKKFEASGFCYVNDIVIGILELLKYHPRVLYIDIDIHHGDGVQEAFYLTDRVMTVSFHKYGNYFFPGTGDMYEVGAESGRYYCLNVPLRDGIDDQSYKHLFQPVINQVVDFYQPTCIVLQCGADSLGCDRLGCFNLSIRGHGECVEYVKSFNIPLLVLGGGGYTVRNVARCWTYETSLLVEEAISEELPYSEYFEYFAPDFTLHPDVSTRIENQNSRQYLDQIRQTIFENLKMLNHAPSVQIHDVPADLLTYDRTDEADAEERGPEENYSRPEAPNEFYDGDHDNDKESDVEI
Settings: not given
For `Nc1cccc(-c2csc(NC(=O)CCCCc3cc(C(=O)NO)no3)n2)c1`, the half-maximal inhibitory concentration (IC50) was 0.025 µM.
The molecule `O=C(CCCCc1cc(C(=O)O)no1)Nc1nc(-c2ccccc2)cs1` yielded an IC50 of 10.6 µM.
On the same count and under the same terms, under `CC(C)(C)OC(=O)Nc1ccc(-c2cc(C(=O)NCC(=O)Nc3ccc(-c4cc(C(=O)NO)no4)cc3)no2)cc1` stands 1.92 µM; under `O=C(CCCCc1cc(C(=O)NO)no1)Nc1nc(-c2ccccc2)cs1`, 0.03 µM.

In the next experiment the target is T1, Protein deacetylase HDAC6 (Homo sapiens, UniProt Q9UBN7).
T1 sequence (Q9UBN7 whole entry): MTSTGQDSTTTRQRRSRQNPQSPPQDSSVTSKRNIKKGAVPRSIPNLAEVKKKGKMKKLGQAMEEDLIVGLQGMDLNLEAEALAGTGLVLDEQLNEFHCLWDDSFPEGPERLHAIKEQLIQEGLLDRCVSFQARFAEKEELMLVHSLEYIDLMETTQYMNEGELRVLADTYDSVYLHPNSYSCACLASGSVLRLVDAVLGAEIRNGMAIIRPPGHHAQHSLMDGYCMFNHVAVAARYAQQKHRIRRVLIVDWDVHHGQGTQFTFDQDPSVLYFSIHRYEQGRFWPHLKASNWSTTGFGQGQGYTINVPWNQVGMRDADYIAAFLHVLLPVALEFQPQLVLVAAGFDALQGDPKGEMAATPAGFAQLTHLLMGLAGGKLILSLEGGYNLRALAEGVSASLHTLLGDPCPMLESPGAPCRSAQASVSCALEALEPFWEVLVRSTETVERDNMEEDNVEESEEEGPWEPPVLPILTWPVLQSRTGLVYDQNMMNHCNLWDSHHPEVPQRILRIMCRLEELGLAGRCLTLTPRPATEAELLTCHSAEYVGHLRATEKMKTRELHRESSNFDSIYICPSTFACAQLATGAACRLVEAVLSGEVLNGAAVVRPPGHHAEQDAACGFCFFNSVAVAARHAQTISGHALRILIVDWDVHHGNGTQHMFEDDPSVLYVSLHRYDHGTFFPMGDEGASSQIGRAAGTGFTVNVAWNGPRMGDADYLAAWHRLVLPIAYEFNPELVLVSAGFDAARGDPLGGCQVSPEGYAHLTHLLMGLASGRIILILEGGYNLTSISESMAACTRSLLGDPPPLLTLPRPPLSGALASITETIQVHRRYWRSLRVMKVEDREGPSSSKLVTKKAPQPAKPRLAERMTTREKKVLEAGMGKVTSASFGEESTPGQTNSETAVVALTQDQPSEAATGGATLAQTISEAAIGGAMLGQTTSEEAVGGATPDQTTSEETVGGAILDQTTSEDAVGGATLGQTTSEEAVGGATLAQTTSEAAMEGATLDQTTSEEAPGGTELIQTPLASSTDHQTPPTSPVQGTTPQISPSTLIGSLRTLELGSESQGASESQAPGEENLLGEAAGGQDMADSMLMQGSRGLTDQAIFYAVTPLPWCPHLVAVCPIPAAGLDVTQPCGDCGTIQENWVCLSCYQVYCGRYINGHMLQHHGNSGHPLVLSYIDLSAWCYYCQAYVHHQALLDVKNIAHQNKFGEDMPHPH
Settings: not given
`Nc1cccc(-c2csc(NC(=O)CCCCc3cc(C(=O)NO)no3)n2)c1` registered an IC50 of 0.082 µM.
The same measure, in the same setting: next, `O=C(CCCCc1cc(C(=O)O)no1)Nc1nc(-c2ccccc2)cs1`: greater than 30 µM.
In the case of `CC(C)(C)OC(=O)Nc1ccc(-c2cc(C(=O)NCC(=O)Nc3ccc(-c4cc(C(=O)NO)no4)cc3)no2)cc1`, 1.71 µM corresponded to half-maximal inhibition (IC50).
The same measure, in the same setting: under `O=C(CCCCc1cc(C(=O)NO)no1)Nc1nc(-c2ccccc2)cs1` stands 0.068 µM; under `O=C(CCCCc1cc(C(=O)NO)no1)NC1CCCC1`, 17.1 µM.

For a further experiment, the target named is T2, Polyamine deacetylase HDAC10 (Homo sapiens, UniProt Q969S8).
T2 sequence (Q969S8 whole entry): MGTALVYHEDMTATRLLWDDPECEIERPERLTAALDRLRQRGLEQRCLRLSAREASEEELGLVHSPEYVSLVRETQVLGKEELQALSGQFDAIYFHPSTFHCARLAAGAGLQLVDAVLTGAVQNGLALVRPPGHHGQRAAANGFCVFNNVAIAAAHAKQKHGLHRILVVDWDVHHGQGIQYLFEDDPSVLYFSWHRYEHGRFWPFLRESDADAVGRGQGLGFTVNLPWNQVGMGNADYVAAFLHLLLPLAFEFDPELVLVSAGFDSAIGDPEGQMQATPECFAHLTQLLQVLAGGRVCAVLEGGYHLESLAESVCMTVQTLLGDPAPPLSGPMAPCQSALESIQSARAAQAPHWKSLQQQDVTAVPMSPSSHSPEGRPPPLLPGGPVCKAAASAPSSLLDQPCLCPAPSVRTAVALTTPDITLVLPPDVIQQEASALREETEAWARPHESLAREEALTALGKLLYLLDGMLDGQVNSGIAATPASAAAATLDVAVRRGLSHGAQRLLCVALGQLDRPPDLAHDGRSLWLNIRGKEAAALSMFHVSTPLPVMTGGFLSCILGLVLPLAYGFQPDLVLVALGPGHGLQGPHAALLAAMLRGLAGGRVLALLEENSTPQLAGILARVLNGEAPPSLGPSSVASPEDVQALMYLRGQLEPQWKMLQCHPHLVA
Settings: not given
`Nc1cccc(-c2csc(NC(=O)CCCCc3cc(C(=O)NO)no3)n2)c1` came in with an IC50 of 0.25 µM.
On the same count and under the same terms, under `O=C(CCCCc1cc(C(=O)O)no1)Nc1nc(-c2ccccc2)cs1` stands greater than 30 µM; under `CC(C)(C)OC(=O)Nc1ccc(-c2cc(C(=O)NCC(=O)Nc3ccc(-c4cc(C(=O)NO)no4)cc3)no2)cc1`, 13.3 µM.
As for `O=C(CCCCc1cc(C(=O)NO)no1)Nc1nc(-c2ccccc2)cs1`, half-maximal inhibition (IC50) required 0.254 µM.
